{
  "source": "patent US20100305045A1",
  "about": "“OMEGA-3 OIL CONTAINING OPHTHALMIC EMULSIONS” (Abbott Medical Optics Inc., priority 2009, published 2010)",
  "origin": "cited, not measured here",
  "conditions": "HLB value as reported by the manufacturer of the commercial product, or rough average",
  "note": "Where two headings read alike, the source gives them in different places.",
  "data": [
    {"substance": "2,4,7,9-Tetramethyl-5-decyne-4,7-diol ethoxylate", "values": [
      {"measurement": "HLB", "value": 8.0}
    ]},
    {"substance": "2,4,7,9-Tetramethyl-5-decyne-4,7-diol ethoxylate (15 EO/OH)", "values": [
      {"measurement": "HLB", "value": 17.0}
    ]},
    {"substance": "Polyoxyethylene sorbitan tetraoleate", "values": [
      {"measurement": "HLB", "value": 11.4}
    ]},
    {"substance": "Polyoxyethylene sorbitol hexaoleate", "values": [
      {"measurement": "HLB", "value": 10.2}
    ]},
    {"substance": "Polyoxyethylene(2) cetyl ether [Brij ® 52]", "values": [
      {"measurement": "HLB", "value": 5.3}
    ]},
    {"substance": "Polyoxyethylene(2) isooctylphenyl ether [Igepal ® CA-210]", "values": [
      {"measurement": "HLB", "value": 4.3}
    ]},
    {"substance": "Polyoxyethylene(2) nonylphenyl ether [Igepal CO-210]", "values": [
      {"measurement": "HLB", "value": 4.6}
    ]},
    {"substance": "Polyoxyethylene(2) oleyl ether [Brij ® 92/93]", "values": [
      {"measurement": "HLB", "value": 4.9}
    ]},
    {"substance": "Polyoxyethylene(2) stearyl ether [Brij ® 72]", "values": [
      {"measurement": "HLB", "value": 4.9},
      {"measurement": "HLB", "setting": "listed as Brij 72", "value": "approximately 4.9"}
    ]},
    {"substance": "Polyoxyethylene(4) lauryl ether [Brij ® 30]", "values": [
      {"measurement": "HLB", "value": 9.7}
    ]},
    {"substance": "Polyoxyethylene(5) isooctylphenyl ether [Igepal ® CA-520]", "values": [
      {"measurement": "HLB", "value": 10.0}
    ]},
    {"substance": "Polyoxyethylene(5) nonylphenyl ether [Igepal ® CO-520]", "values": [
      {"measurement": "HLB", "value": 10.0}
    ]},
    {"substance": "Polyoxyethylene(12) isooctylphenyl ether [Igepal ® CA-720]", "values": [
      {"measurement": "HLB", "value": 14.6}
    ]},
    {"substance": "Polyoxyethylene(12) nonylphenyl ether [Igepal ® CO-720]", "values": [
      {"measurement": "HLB", "value": 14.2}
    ]},
    {"substance": "Polyoxyethylene(12) tridecyl ether", "values": [
      {"measurement": "HLB", "value": 14.5}
    ]},
    {"substance": "Polyoxyethylene(18) tridecyl ether", "values": [
      {"measurement": "HLB", "value": 14.5}
    ]},
    {"substance": "Polyoxyethylene(40) isooctylphenyl ether [Triton ® X-405]", "values": [
      {"measurement": "HLB", "value": 17.9}
    ]},
    {"substance": "Polyoxyethylene(40) nonylphenyl ether [Igepal ® CO-890]", "values": [
      {"measurement": "HLB", "value": 17.8}
    ]},
    {"substance": "Polyoxyethylene(100) nonylphenyl ether [Igepal ® CO-990]", "values": [
      {"measurement": "HLB", "value": 19.0}
    ]},
    {"substance": "Polyoxyethylene(100) stearyl ether [Brij ® 700]", "values": [
      {"measurement": "HLB", "value": 18.8}
    ]},
    {"substance": "Polyoxyethylene(150) dinonylphenyl ether [Igepal ® DM-970]", "values": [
      {"measurement": "HLB", "value": 19.0}
    ]},
    {"substance": "Sorbitan monooleate", "values": [
      {"measurement": "HLB", "value": 4.3}
    ]},
    {"substance": "Sorbitan monopalmitate", "values": [
      {"measurement": "HLB", "value": 6.7}
    ]},
    {"substance": "Sorbitan monostearate", "values": [
      {"measurement": "HLB", "value": 4.7}
    ]}
  ]
}
